SMILES strings stand for the structures. Structures can show the parent of a compound that is named as a salt.

Experimental findings from patent publication US20120214822A1 (ASTRAZENECA AB, priority 2007, published 2012) are described below.

The target in this test is human active recombinant p38α-6His tagged (Homo sapiens, UniProt Q16539). Briefly: P38 Alpha Enzyme Assay (AlphaScreen, biotinylated-ATF2 substrate).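 Note: 0.5 nM final p38α, reaction started with ATP and run 45 min at 37 °C, phospho-ATF2 read by antibody-based AlphaScreen, background wells quenched with EDTA before ATP.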 The format is biochemical. Particulars: p38 alpha enzyme inhibition; means of replicate determinations; 4 h pre-incubation at 37° C.; SD of assay 0.2-0.3 log units. Background: In Alpha technology, singlet oxygen from a donor bead excites a nearby acceptor bead.
human active recombinant p38α-6His tagged, sequence (Q16539 whole entry): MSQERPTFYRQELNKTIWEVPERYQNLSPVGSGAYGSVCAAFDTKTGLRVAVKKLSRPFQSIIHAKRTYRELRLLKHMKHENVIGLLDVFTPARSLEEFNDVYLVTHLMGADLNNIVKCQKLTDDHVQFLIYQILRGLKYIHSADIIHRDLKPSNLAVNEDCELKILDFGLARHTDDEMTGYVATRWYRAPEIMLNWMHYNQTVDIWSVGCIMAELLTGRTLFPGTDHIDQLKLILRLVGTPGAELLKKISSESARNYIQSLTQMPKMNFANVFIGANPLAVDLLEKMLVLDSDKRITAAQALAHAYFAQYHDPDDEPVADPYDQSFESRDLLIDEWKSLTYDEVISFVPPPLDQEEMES

On to `COCCNCCOc1ccccc1C1(Nc2nccn(-c3cc(C(=O)NC4CC4)ccc3C)c2=O)CC1` [Example 231, N-Cyclopropyl-3-[3-[[1-[2-[2-[(2-methoxyethyl)amino]ethoxy]phenyl]cyclopropyl]amino]-2-oxo-1(2H)-pyrazinyl]-4-methyl-benzamide], for which the pIC50 is 9.9.
As for `CNCCOc1ccccc1C1CCCN1c1nccn(-c2cc(C(=O)NC3CC3)ccc2C)c1=O` (stereo not shown) [Example 327, N-Cyclopropyl-4-methyl-3-[3-(2-{2-[2-(methylamino)ethoxy]phenyl}pyrrolidin-1-yl)-2-oxopyrazin-1(2H)-yl]benzamide Trifluoroacetate salt], the negative logarithm of the IC50 (pIC50) was determined as 8.
Next, `Cc1ccc(C(=O)NC2CC2)cc1-n1ccnc(NC2(c3cc(F)ccc3OCCNCCO)CC2)c1=O` [Example 279, N-Cyclopropyl-3-[3-[[1-[5-fluoro-2-[2-[(2-hydroxyethyl)amino]ethoxy]phenyl]cyclopropyl]amino]-2-oxo-1(2H)-pyrazinyl]-4-methyl-benzamide]: 10.1; `Cc1ccc(C(=O)NC2CC2)cc1-n1ccnc(N[C@@H](c2ccccc2)[C@@H](C)CN(C)C(C)(C)C)c1=O` [Example 154, N-Cyclopropyl-3-[3-[[(1R,2S)-3-[(1,1-dimethylethyl)methylamino]-2-methyl-1-phenylpropyl]amino]-2-oxo-1(2H)-pyrazinyl]-4-methyl-benzamide]: 9.
For `Cc1c(F)cc(C(=O)NC2CC2)cc1-n1ccnc(NC(C)(C)c2ccccc2OCCNC[C@H](C)O)c1=O` [Example 258, N-Cyclopropyl-3-fluoro-5-[3-[[1-[2-[2-[[(2S)-2-hydroxypropyl]amino]ethoxy]phenyl]-1-methylethyl]amino]-2-oxo-1(2H)-pyrazinyl]-4-methyl-benzamide], the negative-log IC50 (pIC50) is listed as 10.4.
With `Cc1ccc(C(=O)NC2CC2)cc1-n1ccnc(NCCCN(C)C)c1=O` [Example 3, N-Cyclopropyl-3-[3-[[3-(dimethylamino)propyl]amino]-2-oxo-1(2H)-pyrazinyl]-4-methyl-benzamide], the pIC50 is 6.1.
Next, `CCN(C)CCOc1ccccc1C1(Nc2nccn(-c3cc(C(=O)NC4CC4)ccc3C)c2=O)CC1` [Example 241, N-Cyclopropyl-3-[3-[[1-[2-[2-(ethylmethylamino)ethoxy]phenyl]cyclopropyl]amino]-2-oxo-1(2H)-pyrazinyl]-4-methyl-benzamide]: 9.5; `Cc1ccc(C(=O)NC2CC2)cc1-n1ccnc(N[C@@H](c2cccc3ccccc23)[C@@H](C)CO)c1=O` [Example 137, N-Cyclopropyl-3-[3-[[(1R,2R)-3-hydroxy-2-methyl-1-(1-naphthalenyl)propyl]amino]-2-oxo-1(2H)-pyrazinyl]-4-methyl-benzamide]: 8.1.
As for `Cc1ccc(C(=O)NC2CC2)cc1-n1cc(C(N)=O)nc(NCc2ccccc2)c1=O` [Example 106, 4-[5-[(Cyclopropylamino)carbonyl]-2-methylphenyl]-4,5-dihydro-5-oxo-6-[(phenylmethyl)amino]-2-pyrazinecarboxamide], the figure is 6.2.
Next, `Cc1ccc(C(=O)NC2CC2)cc1-n1ccnc(N[C@@H]2CCc3ccccc32)c1=O` [Example 17, N-Cyclopropyl-3-[3-[[(1R)-2,3-dihydro-1H-inden-1-yl]amino]-2-oxo-1(2H)-pyrazinyl]-4-methyl-benzamide]: 6.6; `COc1ccccc1[C@H](Nc1nccn(-c2cc(C(=O)NC3CC3)ccc2C)c1=O)[C@@H](C)CO` [Example 274, N-Cyclopropyl-3-[3-[[(1R,2R)-3-hydroxy-1-(2-methoxyphenyl)-2-methylpropyl]amino]-2-oxo-1(2H)-pyrazinyl]-4-methyl-benzamide]: 8.7; `Cc1ccc(C(=O)NC2CC2)cc1-n1ccnc(NCCc2ccc(O)cc2)c1=O` [Example 70, N-Cyclopropyl-3-[3-[[2-(4-hydroxyphenyl)ethyl]amino]-2-oxo-1(2H)-pyrazinyl]-4-methyl-benzamide]: 6.8.
Regarding `Cc1ccc(C(=O)NC2CC2)cc1-n1ccnc(NCc2ccccc2F)c1=O` [Example 1, N-Cyclopropyl-3-[3-(2-fluoro-benzylamino)-2-oxo-2H-pyrazin-1-yl]-4-methyl-benzamide], the negative-log IC50 (pIC50) is 7.4.
As for `Cc1ccc(C(=O)NC2CC2)cc1-n1ccnc(N[C@@H](c2ccccc2)[C@@H](C)CN2CCC(O)CC2)c1=O` [Example 152, N-Cyclopropyl-3-[3-[[(1R,2S)-3-(4-hydroxy-1-piperidinyl)-2-methyl-1-phenylpropyl]amino]-2-oxo-1(2H)-pyrazinyl]-4-methyl-benzamide], the figure is 8.9.
As for `Cc1ccc(C(=O)NC2CC2)cc1-n1ccnc(NCC(C)(C)C)c1=O` [Example 49, N-Cyclopropyl-3-[3-[(2,2-dimethylpropyl)amino]-2-oxo-1(2H)-pyrazinyl]-4-methyl-benzamide], the figure is 6.9; as for `CONC(=O)c1ccc(C)c(-n2ccnc(N3CCCC3)c2=O)c1` [Example 132, N-Methoxy-4-methyl-3-[2-oxo-3-(1-pyrrolidinyl)-1(2H)-pyrazinyl]-benzamide], 7.5; as for `CCNC(=O)c1ccc(C)c(-n2ccnc(NCc3ccccc3)c2=O)c1` [Example 115, N-Ethyl-4-methyl-3-[2-oxo-3-[(phenylmethyl)amino]-1(2H)-pyrazinyl]-benzamide], 6.9.
Next, `Cc1ccc(C(=O)NC2CC2)cc1-n1ccnc(NCc2ccccc2Cl)c1=O` [Example 129, 3-[3-[[(2-Chlorophenyl)methyl]amino]-2-oxo-1(2H)-pyrazinyl]-N-cyclopropyl-4-methyl-benzamide]: 7.7; `CCN(CC)C[C@H](C)[C@@H](Nc1nccn(-c2cc(C(=O)NC3CC3)ccc2C)c1=O)c1ccccc1` [Example 146, N-cyclopropyl-3-[3-[[(1R,2S)-3-(diethylamino)-2-methyl-1-phenylpropyl]amino]-2-oxo-1(2H)-pyrazinyl]-4-methyl-benzamide]: 8.9; `Cc1ccc(C(=O)NC2CC2)cc1-n1ccnc(NCc2cccc(C(F)(F)F)c2)c1=O` [Example 93, N-Cyclopropyl-4-methyl-3-[2-oxo-3-[[[3-(trifluoromethyl)phenyl]methyl]amino]-1(2H)-pyrazinyl]-benzamide]: 6.9.
For `Cc1ccc(C(=O)NC2CC2)cc1-n1ccnc(N[C@@H](c2ccccc2)[C@@H](C)CN2CCNC(=O)C2)c1=O` [Example 178, N-Cyclopropyl-4-methyl-3-[3-[[(1R,2S)-2-methyl-3-(3-oxo-1-piperazinyl)-1-phenylpropyl]amino]-2-oxo-1(2H)-pyrazinyl]-benzamide], the pIC50 is reported as 8.8.
As for `Cc1ccc(C(=O)NC2CC2)cc1-n1ccnc(NCc2cccc(CN)c2)c1=O` [Example 124, 3-[3-[[[3-(Aminomethyl)phenyl]methyl]amino]-2-oxo-1(2H)-pyrazinyl]-N-cyclopropyl-4-methyl-benzamide], the figure is 6.9; as for `Cc1c(F)cc(C(=O)NC2CC2)cc1-n1ccnc(NC(C)(C)c2ccccc2OCCNCC(=O)O)c1=O` [Example 312, N-(2-{2-[1-({4-[5-(Cyclopropylcarbamoyl)-3-fluoro-2-methylphenyl]-3-oxo-3,4-dihydropyrazin-2-yl}amino)-1-methylethyl]phenoxy}ethyl)glycine], 9.8; as for `Cc1ccc(C(=O)NC2CC2)cc1-n1ccnc(NC2(c3ccccc3OCCN3CCC[C@H]3C)CC2)c1=O` [Example 247, N-Cyclopropyl-4-methyl-3-[3-[[1-[2-[2-[(2R)-2-methyl-1-pyrrolidinyl]ethoxy]phenyl]cyclopropyl]amino]-2-oxo-1(2H)-pyrazinyl]-benzamide], 9.8.
Next, `Cc1c(F)cc(C(=O)NC2CC2)cc1-n1ccnc(NC2(c3ccccc3OCCN)CC2)c1=O` [Example 314, 3-[3-({1-[2-(2-Aminoethoxy)phenyl]cyclopropyl}amino)-2-oxopyrazin-1(2H)-yl]-N-cyclopropyl-5-fluoro-4-methylbenzamide]: 10.4.
As for `CONC(=O)c1ccc(C)c(-n2ccnc(NC(C)(C)c3ccccc3)c2=O)c1` [Example 112, N-Methoxy-4-methyl-3-[3-[(1-methyl-1-phenylethyl)amino]-2-oxo-1(2H)-pyrazinyl]], the figure is 9.4.
For the compound `COC[C@@H]1CCCN1C[C@H](C)[C@@H](Nc1nccn(-c2cc(C(=O)NC3CC3)ccc2C)c1=O)c1ccccc1` [Example 149, N-Cyclopropyl-3-[3-[[(1R,2S)-3-[(2S)-2-(methoxymethyl)-1-pyrrolidinyl]-2-methyl-1-phenylpropyl]amino]-2-oxo-1(2H)-pyrazinyl]-4-methyl-benzamide], the negative logarithm of the IC50 (pIC50) is 8.9.
Turning to `Cc1ccc(C(=O)NC2CC2)cc1-n1cc(Br)nc(N2CCN(C)CC2c2ccccc2)c1=O` (stereo not shown) [Example 120, 3-[5-bromo-3-(4-methyl-2-phenyl-1-piperazinyl)-2-oxo-1(2H)-pyrazinyl]-N-cyclopropyl-4-methyl-benzamide], the pIC50 is 6.4.
For the compound `CCNCCOc1ccccc1C1(Nc2nccn(-c3cc(C(=O)NC4CC4)ccc3C)c2=O)CC1` [Example 168, N-Cyclopropyl-4-methyl-3-[3-[[1-[2-[2-(ethylamino)ethoxy]phenyl]cyclopropyl]amino]-2-oxo-1(2H)-pyrazinyl]-benzamide], the pIC50 is reported as 9.9.
As for `COCCNCCOc1ccccc1C(C)(C)Nc1nccn(-c2cc(C(=O)NC3CC3)cc(F)c2C)c1=O` [Example 255, N-Cyclopropyl-3-fluoro-5-[3-[[1-[2-[2-[(2-methoxyethyl)amino]ethoxy]phenyl]-1-methylethyl]amino]-2-oxo-1(2H)-pyrazinyl]-4-methyl-benzamide], the figure is 10.2; as for `CNC[C@H](O)COc1ccccc1C1(Nc2nccn(-c3cc(C(=O)NC4CC4)ccc3C)c2=O)CC1` [Example 304, N-Cyclopropyl-3-[3-{[1-(2-{[(2S)-2-hydroxy-3-(methylamino)propyl]oxy}phenyl)cyclopropyl]amino}-2-oxopyrazin-1(2H)-yl]-4-methylbenzamide], 10.2.

For orientation: pIC50 means −log10 of the IC50, conventionally taken in molar units.
